According to the C3SDB collision cross section collection:
Values belong to the compound of their own block, whether it stands above or below them.

Settings: instrument: DT, single field, calibrated with Agilent tune mix (Agilent)

Compound: Cc1cn([C@H]2C[C@H](O)[C@@H](COP(=O)(O)O)O2)c(=O)[nH]c1=O [Deoxythymidine 5'-phosphate]
- collision cross section (N2) ([M+Na]+): 173.1 Å²

Compound: C[N+](C)(C)CCCC[C@H](N)C(=O)[O-] [N6,N6,N6-Trimethyl-L-lysine]
- collision cross section (N2) ([M+H]+): 142 Å²

Compound: O=C(O)C#Cc1ccccc1 [Phenylpropiolic acid]
- collision cross section (N2) ([M+H-H2O]+): 121.2 Å²

Compound: O=C(O)Cc1cc(O)ccc1O [Homogentisic acid]
- collision cross section (N2) ([M+H-H2O]+): 135.9 Å²

Compound: C[C@H](CCC(=O)O)[C@H]1CC[C@H]2[C@@H]3[C@H](O)C[C@@H]4C[C@H](O)CC[C@]4(C)[C@H]3CC[C@]12C [Chenodeoxycholate]
- collision cross section (N2) ([M-H]-): 201.51 Å²

Compound: CCCCCCCC/C=C\CCCCCCCC(=O)SCCNC(=O)CCNC(=O)[C@H](O)C(C)(C)COP(=O)(O)OP(=O)(O)OC[C@H]1O[C@@H](n2cnc3c(N)ncnc32)[C@H](O)[C@@H]1OP(=O)(O)O [Oleoyl-CoA]
- collision cross section (N2) ([M+H]+): 299.4 Å²
- collision cross section (N2) ([M-H]-): 298.79 Å²

Compound: Nc1ncnc2c1ncn2[C@@H]1O[C@H](COP(=O)(O)O)[C@@H](OP(=O)(O)O)[C@H]1O [Adenosine 3',5'-diphosphate]
- collision cross section (N2) ([M+H]+): 182.5 Å²
- collision cross section (N2) ([M-H2O-H]-): 179.49 Å²

Compound: O=C(O)CNC(=O)c1cccnc1 [Nicotinuric acid]
- collision cross section (N2) ([M+H]+): 143.6 Å²
- collision cross section (N2) ([M-H]-): 138.08 Å²

Compound: CC(O)CCCC(=O)O (stereo unspecified) [5-Hydroxyhexanoic acid]
- collision cross section (N2) ([M-H]-): 125.8 Å²

Compound: COc1cc(/C=C/CO)ccc1O [Coniferol]
- collision cross section (N2) ([M+H-H2O]+): 128.6 Å²
- collision cross section (N2) ([M-H]-): 138.18 Å²

Compound: O=C(O)CCCCCCC(=O)O [Suberic acid]
- collision cross section (N2) ([M-H]-): 133.2 Å²

Compound: CC(C)[C@H](C(=O)O)[C@@H](O)C(=O)O [3-Isopropylmalate]
- collision cross section (N2) ([M-H]-): 127.46 Å²

Compound: CC(=O)[C@@H](O)[C@H](O)COP(=O)(O)O [1-Deoxy-D-xylulose 5-phosphate]
- collision cross section (N2) ([M+Na]+): 144.9 Å²
- collision cross section (N2) ([M-H]-): 134.48 Å²

Compound: CC(C)[C@H](NC(=O)CC[C@H](N)C(=O)O)C(=O)O [gamma-Glutamylvaline]
- collision cross section (N2) ([M+H]+): 160.1 Å²

Compound: CC(C)=CCC/C(C)=C/COP(=O)(O)OP(=O)(O)O [Geranyl diphosphate]
- collision cross section (N2) ([M-H2O-H]-): 161.5 Å²

Compound: O=P(O)(O)O[C@H]1O[C@H](CO)[C@@H](O)[C@H](O)[C@H]1O [alpha-D-Glucose 1-phosphate]
- collision cross section (N2) ([M+Na]+): 158 Å²
- collision cross section (N2) ([M-H]-): 145.48 Å²

Compound: O=C1O[C@H]([C@@H](O)CO)[C@H](O)[C@@H]1O [L-Gulonic gamma-lactone]
- collision cross section (N2) ([M+Na]+): 140.6 Å²
- collision cross section (N2) ([M-H]-): 131.6 Å²

Compound: C[C@]12CCC(=O)C[C@@H]1CC[C@@H]1[C@@H]2CC[C@]2(C)C(=O)CC[C@@H]12 [5alpha-Androstane-3,17-dione]
- collision cross section (N2) ([M+H]+): 180.6 Å²
- collision cross section (N2) ([M-H]-): 174.32 Å²

Compound: O=C(O)c1ccc[n+]([C@@H]2O[C@H](COP(=O)(O)O)[C@@H](O)[C@H]2O)c1 [Nicotinate D-ribonucleotide]
- collision cross section (N2) ([M+H]+): 164.8 Å²

Compound: NC(=O)c1ncn([C@@H]2O[C@H](COP(=O)(O)O)[C@@H](O)[C@H]2O)c1N [5'-Phosphoribosyl-5-amino-4-imidazolecarboxamide]
- collision cross section (N2) ([M+H]+): 171.6 Å²
- collision cross section (N2) ([M-H]-): 167.62 Å²

Compound: Nc1[nH]c(=O)nc2nc[nH]c12 [2-Hydroxyadenine]
- collision cross section (N2) ([M+H]+): 127 Å²
- collision cross section (N2) ([M-H]-): 121.04 Å²

Compound: O=C(CO)[C@H](O)[C@H](O)COP(=O)(O)O [D-Ribulose 5-phosphate]
- collision cross section (N2) ([M+Na]+): 148.8 Å²

Compound: CC(=O)N[C@@H](Cc1ccc(O)cc1)C(=O)O [N-Acetyl-L-tyrosine]
- collision cross section (N2) ([M+Na]+): 154.5 Å²
- collision cross section (N2) ([M-H]-): 149.44 Å²

Compound: NCCC[C@@H](N)C(=O)O [D-Ornithine]
- collision cross section (N2) ([M-H]-): 126.74 Å²

Compound: CCCCCCCC/C=C\CCCCCCCCCCCC(=O)O [Erucic acid]
- collision cross section (N2) ([M-H]-): 188.5 Å²

Compound: COC1=C(OC)C(=O)C(C/C=C(\C)CCC=C(C)C)=C(C)C1=O [Ubiquinone-2]
- collision cross section (N2) ([M+H]+): 174.3 Å²

Compound: CCCCCCCC(=O)O [Caprylic acid]
- collision cross section (N2) ([M-H]-): 139.46 Å²

Compound: CC(C)C[C@H](O)C(=O)O [Hydroxyisocaproic acid]
- collision cross section (N2) ([M-H]-): 126.06 Å²

Compound: Nc1ccn([C@H]2C[C@H](O)[C@@H](COP(=O)(O)OP(=O)(O)O)O2)c(=O)n1 [2'-Deoxycytidine diphosphate]
- collision cross section (N2) ([M+Na]+): 174.5 Å²
- collision cross section (N2) ([M-H]-): 170.97 Å²

Compound: O=C(O)c1cc(O)ccc1O [Gentisic acid]
- collision cross section (N2) ([M-H]-): 122.67 Å²

Compound: CCCCCCCCCCCCCCC(=O)O [Pentadecanoic Acid]
- collision cross section (N2) ([M-H]-): 162.72 Å²

Compound: NC(=O)NCCC[C@H](N)C(=O)O [L-Citrulline]
- collision cross section (N2) ([M+H]+): 138 Å²

Compound: N[C@@H](CCC(=O)N[C@@H](CS)C(=O)O)C(=O)O [Gamma-Glutamylcysteine]
- collision cross section (N2) ([M+H]+): 157.7 Å²

Compound: O=C(O)CCCCCCC(=O)NCC(=O)O [Suberylglycine]
- collision cross section (N2) ([M+Na]+): 153.7 Å²
- collision cross section (N2) ([M-H]-): 146.81 Å²

Compound: CCCCCCCCCCCCCCCCCC(=O)OC[C@H](O)[C@H]1OC(=O)C(O)=C1O [Ascorbyl stearate]
- collision cross section (N2) ([M-H]-): 207.62 Å²

Compound: O=C(O)c1cccc([O-])c1 [3-Hydroxybenzoate]
- collision cross section (N2) ([M-H]-): 125.4 Å²

Compound: COc1cc(C(=O)O)ccc1O [Vanillic acid]
- collision cross section (N2) ([M+H]+): 136.2 Å²

The next lines start with the values.

- collision cross section (N2) ([M+H]+): 140.8 Å²
- collision cross section (N2) ([M-H]-): 146.28 Å²
Compound: COc1ccc(/C=C/C(=O)O)cc1 [4-Methoxycinnamic acid]

- collision cross section (N2) ([M+H]+): 176.5 Å²
Compound: O=c1ccn([C@@H]2O[C@H](COP(=O)(O)OP(=O)(O)O)[C@@H](O)[C@H]2O)c(=O)[nH]1 [Uridine 5'-diphosphate]

- collision cross section (N2) ([M+H]+): 153.5 Å²
- collision cross section (N2) ([M-H]-): 148.31 Å²
Compound: C[C@@H](O)[C@@H](O)c1cnc2[nH]c(N)nc(=O)c2n1 [Biopterin]

- collision cross section (N2) ([M+Na]+): 142.4 Å²
Compound: O=C(O)CC(O)(CC(=O)O)C(=O)O [Citrate]

- collision cross section (N2) ([M+H]+): 151 Å²
- collision cross section (N2) ([M-H]-): 149.72 Å²
Compound: NCCC(=O)N[C@@H](Cc1cnc[nH]1)C(=O)O [L-Carnosine]

- collision cross section (N2) ([M+H]+): 136.4 Å²
- collision cross section (N2) ([M-H]-): 134.59 Å²
Compound: NCC(=O)N1CCCC1C(=O)O (stereo unspecified) [Glycylproline]

- collision cross section (N2) ([M+Na-2H]-): 159.52 Å²
- collision cross section (N2) ([M+Na]+): 166.6 Å²
Compound: OC[C@H]1O[C@@H](Oc2ccc(O)cc2)[C@H](O)[C@@H](O)[C@@H]1O [Arbutin]

- collision cross section (N2) ([M-H]-): 123.84 Å²
Compound: CC(CCC(=O)O)C(=O)O (stereo unspecified) [2-Methylglutaric acid]

- collision cross section (N2) ([M+Na]+): 220.7 Å²
- collision cross section (N2) ([M-H]-): 215.5 Å²
Compound: CC(=O)N[C@H]1[C@H]([C@H](O)[C@H](O)CO)O[C@](OP(=O)(O)OC[C@H]2O[C@@H](n3ccc(N)nc3=O)[C@H](O)[C@@H]2O)(C(=O)O)C[C@@H]1O [Cytidine monophosphate N-acetylneuraminic acid]

- collision cross section (N2) ([M-H]-): 189.26 Å²
Compound: Nc1nc(=O)c2ncn([C@H]3C[C@H](O)[C@@H](COP(=O)(O)OP(=O)(O)OP(=O)(O)O)O3)c2[nH]1 [Deoxyguanosine triphosphate]

- collision cross section (N2) ([M-H]-): 171.18 Å²
Compound: Nc1ncnc2c1ncn2[C@@H]1O[C@H](CO)[C@@H](OP(=O)(O)O)[C@H]1O [Adenosine 3'-monophosphate]

- collision cross section (N2) ([M+H]+): 174.7 Å²
- collision cross section (N2) ([M-H]-): 164.74 Å²
Compound: O=c1[nH]c(=O)c2ncn([C@@H]3O[C@H](COP(=O)(O)O)[C@@H](O)[C@H]3O)c2[nH]1 [Xanthylic acid]

- collision cross section (N2) ([M+H]+): 147 Å²
- collision cross section (N2) ([M-H]-): 139.51 Å²
Compound: N[C@@H](CCSC[C@H](N)C(=O)O)C(=O)O [L-Cystathionine]

- collision cross section (N2) ([M-H]-): 176.92 Å²
Compound: Nc1ccn([C@H]2C[C@H](O)[C@@H](COP(=O)(O)OP(=O)(O)OP(=O)(O)O)O2)c(=O)n1 [Deoxycytidine 5'-triphosphate]

- collision cross section (N2) ([M-H]-): 120.45 Å²
Compound: O=C(O)c1ccc([O-])c(O)c1 [3,4-Dihydroxybenzoate]

- collision cross section (N2) ([M+Na-2H]-): 161.1 Å²
Compound: O=P(O)(O)OC[C@H]1O[C@H](OP(=O)(O)OP(=O)(O)O)[C@H](O)[C@@H]1O [5-Phospho-alpha-D-ribose 1-diphosphate]

- collision cross section (N2) ([M+Na]+): 161.9 Å²
- collision cross section (N2) ([M-H]-): 149.85 Å²
Compound: O=C(O)/C=C/CCCCCCCCC(=O)O [Traumatic Acid]

- collision cross section (N2) ([M+Na]+): 152.2 Å²
- collision cross section (N2) ([M-H]-): 149.2 Å²
Compound: NC(Cc1c[nH]c2ccc(O)cc12)C(=O)O (stereo unspecified) [5-Hydroxytryptophan]

- collision cross section (N2) ([M+H]+): 140.3 Å²
- collision cross section (N2) ([M+Na-2H]-): 132.56 Å²
Compound: N[C@@H](CCS(=O)(=O)O)C(=O)O [L-homocysteic acid]

- collision cross section (N2) ([M+H]+): 193.6 Å²
- collision cross section (N2) ([M-H]-): 196.42 Å²
Compound: Nc1nc(=O)c2c([nH]1)NCC(CNc1ccc(C(=O)N[C@@H](CCC(=O)O)C(=O)O)cc1)=N2 [7,8-Dihydrofolate]

- collision cross section (N2) ([M+Na]+): 164.2 Å²
- collision cross section (N2) ([M-H]-): 166.84 Å²
Compound: Cn1c(=O)ccn([C@@H]2O[C@H](CO)[C@@H](O)[C@H]2O)c1=O [3-Methyluridine]

- collision cross section (N2) ([M-H]-): 141.71 Å²
Compound: C=C(C)CCOP(=O)(O)OP(=O)(O)O [Isopentenyl pyrophosphate]

- collision cross section (N2) ([M+H]+): 196.9 Å²
- collision cross section (N2) ([M-H]-): 196.26 Å²
Compound: Nc1nc(=O)c2c([nH]1)NCC(CNc1ccc(C(=O)N[C@@H](CCC(=O)O)C(=O)O)cc1)N2C=O (stereo partly specified) [Folinic acid]

- collision cross section (N2) ([M+H]+): 130.8 Å²
- collision cross section (N2) ([M-H]-): 128.75 Å²
Compound: Cn1cnc2[nH]c(=O)[nH]c(=O)c21 [7-Methylxanthine]

- collision cross section (N2) ([M-H]-): 137.38 Å²
Compound: O=C(O)CCCCCCCC(=O)O [Azelaic acid]

- collision cross section (N2) ([M-H]-): 126.65 Å²
Compound: O=C(O)Cc1ccc(O)cc1 [p-Hydroxyphenylacetic acid]
